Measured values reported in patent US12180187B2, “1-phenyl-5-azinylpyrazolyl-3-oxyalkyl acids and their use for controlling unwanted plant growth” (BAYER AKTIENGESELLSCHAFT, priority 2019, dated 2024).

Tests used:
ALOMY [1] = assay: Pre-emergence action at 320 g/ha against ALOMY; format: in vivo, Alopecurus myosuroides; conditions: scored visually after about 3 weeks vs untreated controls (100% = plants have died)
Summary of the method: (§1)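 Sow seeds, cover with soil, spray soil surface (WP/EC, 0.5% additive, 600 l/ha water), hold in greenhouse ~3 wk, then rate % activity visually against untreated controls.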

AVEFA [2] = assay: Pre-emergence action at 320 g/ha against AVEFA; format: in vivo; conditions: visual scoring after about 3 weeks vs untreated controls
Summary of the method: as §1

DIGSA [3] = assay: Pre-emergence action at 320 g/ha against DIGSA; format: in vivo, Digitaria sanguinalis; conditions: visual scoring after about 3 weeks vs untreated controls
Summary of the method: as §1

ECHGC = assay: Pre-emergence action at 320 g/ha against ECHGC; format: in vivo, Echinochloa crus-galli; conditions: visual scoring after about 3 weeks vs untreated controls
Summary of the method: as §1

LOLRI = assay: Pre-emergence action at 320 g/ha against LOLRI; format: in vivo, Lolium rigidum; conditions: visual scoring after about 3 weeks vs untreated controls
Summary of the method: as §1

SETVI [4] = assay: Pre-emergence action at 320 g/ha against SETVI; format: in vivo, Setaria viridis; conditions: visual scoring after about 3 weeks vs untreated controls
Summary of the method: as §1

AMARE [5] = assay: Pre-emergence action at 320 g/ha against AMARE; format: in vivo, Amaranthus retroflexus; conditions: visual scoring after about 3 weeks vs untreated controls
Summary of the method: as §1

MATIN = assay: Pre-emergence action at 320 g/ha against MATIN; format: in vivo, Tripleurospermum inodorum (Matricaria inodora); conditions: visual scoring after about 3 weeks vs untreated controls
Summary of the method: as §1

PHBPU [6] = assay: Pre-emergence action at 320 g/ha against PHBPU; format: in vivo; conditions: visual scoring after about 3 weeks vs untreated controls
Text: (§2) b) Seeds of monocotyledonous and dicotyledonous weed plants and crop plants are placed in plastic or organic planting pots and covered with soil. The compounds of the invention, formulated in the form of wettable powders (WP) or as emulsion concentrates (EC), are then applied onto the surface of the covering soil as aqueous suspension or emulsion with addition of 0.5% additive at a water application rate of 600 l/ha (converted). After the treatment, the pots are placed in a greenhouse and kept under good growth conditions for the trial plants. After about 3 weeks, the effect of the preparations is scored visually in comparison with untreated controls as percentages. For example, 100% activity=the plants have died, 0% activity=like control plants. Tables 13 to 26 below show the effects of selected compounds of the general formula (I) on various harmful plants and at an application rate corresponding to 320 g/ha, which were obtained by the experimental procedure mentioned above.

POLCO [7] = assay: Pre-emergence action at 320 g/ha against POLCO; format: in vivo, Fallopia convolvulus (Polygonum convolvulus); conditions: visual scoring after about 3 weeks vs untreated controls
Summary of the method: as §1

VERPE = assay: Pre-emergence action at 320 g/ha against VERPE; format: in vivo, Veronica persica; conditions: visual scoring after about 3 weeks vs untreated controls
Summary of the method: as §1

VIOTR [8] = assay: Pre-emergence action at 320 g/ha against VIOTR; format: in vivo, Viola tricolor; conditions: dosage 320 g/ha
Summary of the method: as §1

ALOMY [9] = assay: Post-emergence action against ALOMY, 320 g/ha; format: in vivo, Alopecurus myosuroides; conditions: dosage 320 g/ha, visual rating about 3 weeks after treatment vs untreated controls (100% = plants died)
Summary of the method: (§3)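 Greenhouse pot plants in sandy loam received a foliar spray of WP- or EC-formulated compound at the one-leaf stage. Percent activity against untreated controls was assessed visually around three weeks later.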

DIGSA [10] = assay: Post-emergence action at 320 g/ha against DIGSA; format: in vivo, Digitaria sanguinalis; conditions: dosage 320 g/ha, visual rating about 3 weeks after treatment vs untreated controls (100% = plants died)
Text: (§4) Accordingly, the compounds of the invention have good herbicidal action against a broad spectrum of weed grasses and broad-leaved weeds and are therefore suitable for controlling unwanted vegetation by the post-emergence method. • b) Seeds of monocotyledonous and dicotyledonous weeds and crop plants are placed in sandy loam in plastic or organic planting pots, covered with soil and cultivated in a greenhouse under controlled growth conditions. 2 to 3 weeks after sowing, the test plants are treated at the one-leaf stage. The compounds of the invention, formulated in the form of wettable powders (WP) or as emulsion concentrates (EC), are then sprayed onto the green parts of the plants as aqueous suspension or emulsion with addition of 0.5% additive at a water application rate of 600 l/ha (converted). After the test plants have been kept in the greenhouse under optimum growth conditions for about 3 weeks, the activity of the preparations is rated visually in comparison to untreated controls. For example, 100% activity=the plants have died, 0% activity=like control plants. Tables 39 to 49 below show the effects of selected compounds of the general formula (I) according to Tables 1 and 2 on various harmful plants and at an application rate corresponding to 320 g/ha, which were obtained by the experimental procedure mentioned above.

ECHCG = assay: Post-emergence action at 320 g/ha against ECHCG; format: in vivo, Echinochloa crus-galli; conditions: dosage 320 g/ha, visual rating about 3 weeks after treatment vs untreated controls (100% = plants died)
Text: as §4

ABUTH [11] = assay: Post-emergence action at 320 g/ha against ABUTH; format: in vivo, Abutilon theophrasti; conditions: visual rating about 3 weeks after treatment vs untreated controls
Text: as §4

AMARE [12] = assay: Post-emergence action at 320 g/ha against AMARE; format: in vivo, Amaranthus retroflexus; conditions: visual rating about 3 weeks after treatment vs untreated controls
Text: as §4

SETVI [13] = assay: Post-emergence action at 320 g/ha against SETVI; format: in vivo, Setaria viridis; conditions: visual rating about 3 weeks after treatment vs untreated controls
Text: as §4

PHBPU [14] = assay: Post-emergence action at 320 g/ha against PHBPU; format: in vivo; conditions: visual rating about 3 weeks after treatment vs untreated controls
Text: as §4

POLCO [15] = assay: Post-emergence action at 320 g/ha against POLCO; format: in vivo, Fallopia convolvulus (Polygonum convolvulus); conditions: visual rating about 3 weeks after treatment vs untreated controls
Text: as §4

VIOTR [16] = assay: Post-emergence action at 320 g/ha against VIOTR; format: in vivo, Viola tricolor; conditions: visual rating about 3 weeks after treatment vs untreated controls
Text: as §4

AVEFA [17] = assay: Post-emergence action at 320 g/ha against AVEFA; format: in vivo; conditions: visual rating about 3 weeks after treatment vs untreated controls
Summary of the method: as §3

ABUTH [18] = assay: Pre-emergence action at 320 g/ha against ABUTH; format: in vivo, Abutilon theophrasti; conditions: greenhouse, scored visually after about 3 weeks vs untreated controls, 100% = plants have died, 0% = like control plants
Text: as §2

SMILES	Pre-emergence action at 320 g/ha against ALOMY in % (ALOMY [1]) [%]	Pre-emergence action against AVEFA in % (AVEFA [2]) [%]	Pre-emergence action against DIGSA in % (DIGSA [3]) [%]	Pre-emergence action against ECHGC in % (ECHGC) [%]	Pre-emergence action against LOLRI in % (LOLRI) [%]	Pre-emergence action against SETVI in % (SETVI [4]) [%]	Pre-emergence action against AMARE in % (AMARE [5]) [%]	Pre-emergence action against MATIN in % (MATIN) [%]	Pre-emergence action against POLCO in % (POLCO [7]) [%]	Pre-emergence action against VERPE in % (VERPE) [%]	Pre-emergence action against VIOTR in % (VIOTR [8]) [%]	other results
COC(=O)COc1nn(-c2ccccc2F)c(-c2ccc(F)nc2)c1Br [VII-001]	100	90	100	100	100	100	100	90	90	100	100	Pre-emergence action against PHBPU in % (PHBPU [6]): 100%; Post-emergence action against ALOMY (ALOMY [9]): 90%; Post-emergence action at 320 g/ha against DIGSA in % (DIGSA [10]): 90%; Post-emergence action at 320 g/ha against ECHCG in % (ECHCG): 100%; Post-emergence action against ABUTH in % (ABUTH [11]): 80%; Post-emergence action against AMARE in % (AMARE [12]): 90%; Post-emergence action against SETVI in % (SETVI [13]): 90%; Post-emergence action against PHBPU in % (PHBPU [14]): 90%; Post-emergence action against POLCO in % (POLCO [15]): 80%; Post-emergence action against VIOTR in % (VIOTR [16]): 80%; Post-emergence action against AVEFA in % (AVEFA [17]): 90%
CCOC(=O)[C@@H](C)Oc1nn(-c2ccccc2F)c(-c2cncc(F)c2)c1Br [VII-130]	100	90	100	90	100	100	100	100	100	100	100	Pre-emergence action at 320 g/ha against ABUTH in % (ABUTH [18]): 90%
